Reference: patent publication US4806556A, “Gut-selective opiates” (Regents of the University of Minnesota, priority 1987, dated 1989)

Key:
[1] = system: electrically-stimulated guinea pig ileum (GPI) preparations; assay: Antagonist activity: displacement of the morphine concentration-response curve on guinea pig ileum preparation; conditions: for Antagonism (Morphine IC50 Ratio): factor by which the morphine concentration-response curve is shifted to higher concentration: IC50 of morphine with antagonist / control IC50, 3 determinations
[2] = system: electrically-stimulated guinea pig ileum (GPI) preparations; assay: Agonist activity: inhibition of contraction of electrically-stimulated guinea pig ileum (GPI) preparation, compared to morphine; set-up: Emax: dose or concentration left out as unconfirmed; conditions: for Agonism (Morphine = 1): potency factor for the inhibition of contraction relative to that of morphine: electrically stimulated guinea pig ileum, 3 determinations; for Emax: Cavia porcellus, read-out: Agonism: partial agonist, maximal response relative to that of morphine; for Agonist activity on GPI (in words): compared to morphine

Compound | Antagonism (Morphine IC50 Ratio): factor by which the morphine concentration-response curve is shifted to higher concentration ([1]; ligand concentration 200 nM) | Agonism (Morphine = 1): potency factor for the inhibition of contraction relative to that of morphine [2] | Emax [2] [%] | Agonist activity on GPI (in words) [2] | Morphine antagonist activity on GPI (in words) [1] | Antagonism (Morphine IC50 Ratio): factor by which the morphine concentration-response curve is shifted to higher concentration ([1]; ligand concentration = 20 nM)
CN1CC[C@]23c4c5ccc(O)c4O[C@H]2C(NC(=O)CCC(=O)O)CC[C@@]3(O)[C@H]1C5 (stereo partly drawn) [Compound 8] | 1 | 1.6 |  |  |  | 
CN1CC[C@]23c4c5ccc(O)c4O[C@H]2C(NC(=O)/C=C/C(=O)O)CC[C@@]3(O)[C@H]1C5 (stereo partly drawn) [Compound 9] | 1 | 1.5 |  |  |  | 
O=C(O)COCC(=O)NC1CC[C@@]2(O)[C@H]3Cc4ccc(O)c5c4[C@@]2(CCN3CC2CC2)[C@H]1O5 (stereo partly drawn) [Compound 4] | 34.8 |  | 30 to 60 | submaximal responses relative to morphine |  | 
N=C(N)NN=C1CC[C@@]2(O)[C@H]3Cc4ccc(O)c5c4[C@@]2(CCN3CC2CC2)[C@H]1O5 [Compound 16, Naltrexazone iminosemicarbazone] |  | 29 |  |  |  | 
N=C(N)NCCCC(N)C(=O)N[C@@H]1CC[C@@]2(O)[C@H]3Cc4ccc(O)c5c4[C@@]2(CCN3CC2CC2)[C@H]1O5 (stereo partly drawn) [Compound 5, Arginyl-β-naltrexamine] | 4.0 |  | 30 to 60 | submaximal responses relative to morphine |  | 
NC(CC(=O)O)C(=O)NC1CCC2(O)C3Cc4ccc(O)c5c4C2(CCN3CC2CC2)C1O5 (stereo not drawn) [Compound 6] | 1 | 14.2 |  |  | possible exception to this generality | 
CN1CC[C@]23c4c5ccc(O)c4O[C@H]2C(NC(=O)COCC(=O)O)CC[C@@]3(O)[C@H]1C5 (stereo partly drawn) [Compound 11] | 1 | 3.1 |  |  |  | 
O=C(O)CNN=C1CC[C@@]2(O)[C@H]3Cc4ccc(O)c5c4[C@@]2(CCN3CC2CC2)[C@H]1O5 [Compound 15, Naltrexazoneacetic acid] | 100 |  | 30 to 60 |  |  | 
CN1CC[C@]23c4c5ccc(O)c4O[C@H]2C(NC(=O)/C=C\C(=O)O)CC[C@@]3(O)[C@H]1C5 (stereo partly drawn) [Compound 10] | 1 | 2.7 |  |  |  | 
O=C(O)CN[C@@H]1CC[C@@]2(O)[C@H]3Cc4ccc(O)c5c4[C@@]2(CCN3CC2CC2)[C@H]1O5 [Compound 7, β-Naltrexamineacetic acid] |  |  | 30 to 60 | submaximal responses relative to morphine |  | 2.4
O=C(O)CCC(=O)NC1CC[C@@]2(O)[C@H]3Cc4ccc(O)c5c4[C@@]2(CCN3CC2CC2)[C@H]1O5 (stereo partly drawn) [Compound 1] | 11.0 |  | 30 to 60 | submaximal responses relative to morphine |  | 
CN1CC[C@]23c4c5ccc(O)c4O[C@H]2C(NC(=O)C(N)CC(=O)O)CC[C@@]3(O)[C@H]1C5 (stereo partly drawn) [Compound 12] | 1 | 6.1 |  |  |  | 
O=C(O)/C=C/C(=O)NC1CC[C@@]2(O)[C@H]3Cc4ccc(O)c5c4[C@@]2(CCN3CC2CC2)[C@H]1O5 (stereo partly drawn) [Compound 3] |  | 3 |  |  |  | 3.7
